Target: mTOR/GbL/Raptor (mTORC1) (Homo sapiens, UniProt P42345)
Experiment: mTOR/GbL/Raptor (mTORC1) ELISA assay
Format: biochemical
Conditions: phosphorylation of 4E-BP1; 0.2 nM mTORC1, 10 μM ATP; read-out: IC50 in this assay (mTORC1 ELISA)
Outline: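 ELISA read-out: phospho-4E-BP1 captured on Ni-chelate plates and detected with anti-phospho antibody plus HRP-anti-IgG luminescence. The kinase step ran 120 min at ambient temperature with 0.2 nM human mTORC1, 10 µM ATP, 50 nM His-4E-BP1, 10 mM MnCl2, pH 7.2 HEPES.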

Row | IC50 | SMILES
1 | 50 to 250 nM | CN(C)CCNS(=O)(=O)c1cc(-c2ccc3c(c2)CN(c2ncnc4c2CC(C)(C)CC4)CCO3)cnc1N [Example 423, 2-amino-N-[2-(dimethylamino)ethyl]-5-[4-(6,6-dimethyl-5,6,7,8-tetrahydroquinazolin-4-yl)-2,3,4,5-tetrahydro-1,4-benzoxazepin-7-yl]pyridine-3-sulfonamide]
2 | 10 to 50 nM | CCC1CCc2nc(C)nc(N3CCOc4ccc(-c5cnc6nc(C)[nH]c6c5)cc4C3)c2C1 (centres unmarked) [Example 482, 4-(6-ethyl-2-methyl-5,6,7,8-tetrahydroquinazolin-4-yl)-7-(2-methyl-1H-imidazo[4,5-b]pyridin-6-yl)-2,3,4,5-tetrahydro-1,4-benzoxazepine]
3 | 50 to 250 nM | CCNc1nc2ccc(-c3ccc4c(c3)CN(c3ccnc5ccc(OC)cc35)CCO4)cc2[nH]1 [Example 278, N-ethyl-6-{4-[6-(methyloxy)quinolin-4-yl]-2,3,4,5-tetrahydro-1,4-benzoxazepin-7-yl}-1H-benzimidazol-2-amine]
4 | ≤ 10 nM | Cc1nc2c(c(N3CCOc4ccc(-c5cnc6sc(N)nc6c5)cc4C3)n1)CC(C)(C)CC2 [Example 669, 6-[4-(2,6,6-trimethyl-5,6,7,8-tetrahydroquinazolin-4-yl)-2,3,4,5-tetrahydro-1,4-benzoxazepin-7-yl][1,3]thiazolo[5,4-b]pyridin-2-amine]
5 | 50 to 250 nM | CC1(C)CCc2ncnc(N3CCOc4ccc(-c5cnc(N)c(S(=O)(=O)N6CC(F)(F)C6)c5)cc4C3)c2C1 [Example 438, 3-[(3,3-difluoroazetidin-1-yl)sulfonyl]-5-[4-(6,6-dimethyl-5,6,7,8-tetrahydroquinazolin-4-yl)-2,3,4,5-tetrahydro-1,4-benzoxazepin-7-yl]pyridin-2-amine]
6 | 50 to 250 nM | CCc1c(C)ncnc1N1CCOc2ccc(-c3ccc4nc(C)[nH]c4c3)cc2C1 [Example 64, 4-(5-ethyl-6-methylpyrimidin-4-yl)-7-(2-methyl-1H-benzimidazol-6-yl)-2,3,4,5-tetrahydro-1,4-benzoxazepine]
7 | 50 to 250 nM | COc1ccc2c(N3CCOc4ccc(-c5cnc6nc(C)[nH]c6c5)cc4C3)ncnc2c1 [Example 565, 7-(2-methyl-1H-imidazo[4,5-b]pyridin-6-yl)-4-[7-(methyloxy)quinazolin-4-yl]-2,3,4,5-tetrahydro-1,4-benzoxazepine]
8 | 50 to 250 nM | C=CCc1c(C)nc(CN(C)C)nc1N1CCOc2ccc(-c3ccc4nc(C)[nH]c4c3)cc2C1 [Example 654, N,N-dimethyl-1-{4-methyl-6-[7-(2-methyl-1H-benzimidazol-6-yl)-2,3-dihydro-1,4-benzoxazepin-4(5H)-yl]-5-prop-2-en-1-ylpyrimidin-2-yl}methanamine]
9 | 250 to 1000 nM | Cc1nc2ccc(-c3ccc4c(c3)CN(c3ncnc(C(C)C)c3C)CCO4)cc2[nH]1 [Example 62, 7-(2-methyl-1H-benzimidazol-6-yl)-4-[5-methyl-6-(1-methylethyl)pyrimidin-4-yl]-2,3,4,5-tetrahydro-1,4-benzoxazepine]
10 | 10 to 50 nM | CC1(C)CCc2ncnc(N3CCOc4ccc(-c5cnc(N)c(S(=O)(=O)N6CC(O)(CO)C6)c5)cc4C3)c2C1 [Example 314, 1-({2-amino-5-[4-(6,6-dimethyl-5,6,7,8-tetrahydroquinazolin-4-yl)-2,3,4,5-tetrahydro-1,4-benbzoxazepin-7-yl]pyridin-3-yl}sulfonyl)-3-(hydroxymethyl)azetidin-3-ol]
11 | ≤ 10 nM | CC1=Cc2ncnc(N3CCOc4ccc(-c5cnc(N)c(S(=O)(=O)NCC(C)(C)N)c5)cc4C3)c2CC1(C)C [Example 405, 2-amino-N-(2-amino-2-methylpropyl)-5-[4-(6,6,7-trimethyl-5,6-dihydroquinazolin-4-yl)-2,3,4,5-tetrahydro-1,4-benzoxazepin-7-yl]pyridine-3-sulfonamide]
12 | 10 to 50 nM | CC1(C)CCc2ncnc(N3CCOc4ccc(-c5cnc(N)c(S(=O)(=O)N6CCCC(N)C6)c5)cc4C3)c2C1 (centres unmarked) [Example 444, 3-[(3-aminopiperidin-1-yl)sulfonyl]-5-[4-(6,6-dimethyl-5,6,7,8-tetrahydroquinazolin-4-yl)-2,3,4,5-tetrahydro-1,4-benzoxazepin-7-yl]pyridin-2-amine]
13 | ≤ 10 nM | CC1(C)CCc2ncnc(N3CCOc4ccc(-c5cnc(N)c(S(=O)(=O)NCCN)c5)cc4C3)c2C1 [Example 409, 2-amino-N-(2-aminoethyl)-5-[4-(6,6-dimethyl-5,6,7,8-tetrahydroquinazolin-4-yl)-2,3,4,5-tetrahydro-1,4-benzoxazepin-7-yl]pyridine-3-sulfonamide]
14 | ≤ 10 nM | Cc1nc2ncc(-c3ccc4c(c3)CN(c3nc(CNS(C)(=O)=O)nc5c3CC(C)(C)CC5)CCO4)cc2[nH]1 [Example 601, N-({6,6-dimethyl-4-[7-(2-methyl-1H-imidazo[4,5-b]pyridin-6-yl)-2,3-dihydro-1,4-benzoxazepin-4(5H)-yl]-5,6,7,8-tetrahydroquinazolin-2-yl)methyl)methanesulfonamide]
15 | 50 to 250 nM | COc1ccc(-c2ccc3c(c2)CN(c2nc(CN(C)C)nc4c2CC(C)(C)CC4)CCO3)cc1C(C)=O [Example 650, 1-[5-(4-{2-[(dimethylamino)methyl]-6,6-dimethyl-5,6,7,8-tetrahydroquinazolin-4-yl}-2,3,4,5-tetrahydro-1,4-benzoxazepin-7-yl)-2-(methyloxy)phenyl]ethanone]

The remaining lines, values behind:

Row | SMILES | IC50
16 | Cc1nc2cc(-c3ccc4c(c3)CN(c3nc(CN(C)C)nc(C)c3Cc3ccc(F)cc3)CCO4)ccc2[nH]1 [Example 347, 1-{5-[(4-fluorophenyl)methyl]-4-methyl-6-[7-(2-methyl-1H-benzimidazol-5-yl)-2,3-dihydro-1,4-benzoxazepin-4(5H)-yl]pyrimidin-2-yl}-N,N-dimethylmethanamine] | ≤ 10 nM
17 | Nc1nc2ncc(-c3ccc4c(c3)CN(c3ncnc5ccc(F)cc35)CCO4)cc2[nH]1 [Example 187, 6-[4-(6-fluoroquinazolin-4-yl)-2,3,4,5-tetrahydro-1,4-benzoxazepin-7-yl]-1H-imidazo[4,5-b]pyridin-2-amine] | 10 to 50 nM
18 | Cc1nc2ccc(-c3ccc4c(c3)CN(c3ccnc(C)c3Cc3cccc(F)c3)CCO4)cc2[nH]1 [Example 103, 4-{3-[(3-fluorophenyl)methyl]-2-methylpyridin-4-yl}-7-(2-methyl-1H-benzimidazol-6-yl)-2,3,4,5-tetrahydro-1,4-benzoxazepine] | ≤ 10 nM
19 | Cc1nc2ncc(-c3ccc4c(c3)CN(c3ncnc5c3C[C@H](C)[C@@H](C)C5)CCO4)cc2[nH]1 [Example 486, 4-[(6S,7S)-6,7-dimethyl-5,6,7,8-tetrahydroquinazolin-4-yl]-7-(2-methyl-1H-imidazo[4,5-b]pyridin-6-yl)-2,3,4,5-tetrahydro-1,4-benzoxazepine] | ≤ 10 nM
20 | CCNc1nc2ccc(-c3ccc4c(c3)CN(c3cc(Nc5ccc(OC)cc5)ncn3)CCO4)cc2[nH]1 [Example 276, N-ethyl-6-[4-(6-{[4-(methyloxy)phenyl]amino}pyrimidin-4-yl)-2,3,4,5-tetrahydro-1H-benzoxazepin-7-yl]-1H-benzimidazol-2-amine] | 250 to 1000 nM
21 | Cc1c(NC2CCN(C)CC2)ncnc1N1CCOc2ccc(-c3cnc4nc(C5CC5)[nH]c4c3)cc2C1 [Example 531, 6-[7-(2-cyclopropyl-1H-imidazo[4,5-b]pyridin-6-yl)-2,3-dihydro-1,4-benzoxazepin-4(5H)-yl]-5-methyl-N-(1-methylpiperidin-4-yl)pyrimidin-4-amine] | 250 to 1000 nM
22 | CCc1c(C)nc(CN(C)C)nc1N1CCOc2ccc(-c3cnc4[nH]c(C)nc4c3)cc2C1 [Example 350, 1-{5-ethyl-4-methyl-6-[7-(2-methyl-3H-imidazo[4,5-b]pyridin-6-yl)-2,3-dihydro-1,4-benzoxazepin-4(5H)-yl]pyrimidin}-N,N-dimethylmethanamine] | 50 to 250 nM
23 | Cn1c(N)nc2cc(-c3ccc4c(c3)CN(c3ccnc5ccccc35)CCO4)ccc21 [Example 116, 1-methyl-5-(4-quinolin-4-yl-2,3,4,5-tetrahydro-1,4-benzoxazepin-7-yl)-1H-benzimidazol-2-amine] | 1000 to 2000 nM
24 | Cc1nc2ncc(-c3ccc4c(c3)CN(c3ncnc(C)c3C)CCO4)cc2[nH]1 [Example 257, 4-(5,6-dimethylpyrimidin-4-yl)-7-(2-methyl-1H-imidazo[4,5-b]pyridin-6-yl)-2,3,4,5-tetrahydro-1,4-benzoxazepine] | 250 to 1000 nM
25 | CN1C[C@@H]2C[C@H]1CN2S(=O)(=O)c1cc(-c2ccc3c(c2)CN(c2ncnc4c2CC(C)(C)CC4)CCO3)cnc1N [Example 518, 5-[4-(6,6-dimethyl-5,6,7,8-tetrahydroquinazolin-4-yl)-2,3,4,5-tetrahydro-1,4-benzoxazepin-7-yl]-3-{[(1S,4S)-5-methyl-2,5-diazabicyclo[2.2.1]hept-2-yl]sulfonyl}pyridin-2-amine] | 50 to 250 nM
26 | CCc1nc2ccc(-c3ccc4c(c3)CN(c3ncnc5c3CC(C)(C)CC5)CCO4)cc2[nH]1 [Example 254, 4-(6,6-dimethyl-5,6,7,8-tetrahydroquinazolin-4-yl)-7-(2-ethyl-1H-benzimidazol-6-yl)-2,3,4,5-tetrahydro-1,4-benzoxazepine] | ≤ 10 nM
27 | CCC1CCc2ncnc(N3CCOc4ccc(-c5cnc6nc(C)[nH]c6c5)cc4C3)c2C1 (centres unmarked) [Example 483, 4-(6-ethyl-5,6,7,8-tetrahydroquinazolin-4-yl)-7-(2-methyl-1H-imidaz[4,5-b]pyridin-6-yl)-2,3,4,5-tetrahydro-1,4-benzoxazepine] | ≤ 10 nM
28 | COc1ccc2c(N3CCOc4ccc(-c5ccc6nc(C)[nH]c6c5)cc4C3)nc(C)nc2c1 [Example 258, 7-(2-methyl-1H-benzimidazol-6-yl)-4-[2-methyl-7-(methyloxy)quinoazolin-4-yl]-2,3,4,5-tetrahydro-1,4-benzoxazepine] | 250 to 1000 nM
29 | COc1cc2nccc(N3CCOc4ccc(-c5ccc6nc(N)[nH]c6c5)cc4C3)c2cc1OC [Example 191, 6-{4-[6,7-bis(methyloxy)quinolin-4-yl]-2,3,4,5-tetrahydro-1,4-benzoxazepin-7-yl}-1H-benzimidazol-2-amine] | 250 to 1000 nM

Reference: US8648066B2 (Exelixis, Inc., priority 2009, dated 2014)
